Source: patent US20180311342A1, “IMMUNOSTIMULATING AGENT” (AJINOMOTO CO., INC., priority 2017, published 2018)

How the values were obtained:
[1] = system: anti-OVA-specific IgG1 subclass antibody; experiment: Adjuvant activity test: anti-OVA-specific IgG1 subclass antibody in serum of OVA-immunized mice (ELISA); format: in vivo, BALB/c mice; settings: after secondary immunization, serum 2 weeks later; OVA 5 μg + compound 0.256 μmol in 5% αCD-added saline (Addavax mixed with saline at 1:1), dorsal-subcutaneous; compared to OVA single administration group
Description: (§1) 8-Week-old female BALB/c mice were divided into groups (N=6), and each group was primarily immunized by dorsal-subcutaneous administration of (1) ovalbumin (OVA) (5 μg) dissolved in saline as an antigen (OVA single administration group), (2) OVA 5 μg and Addavax™ (mixed with saline at 1:1) dissolved in saline (Addavax™ administration group) as positive control adjuvant, (3) OVA 5 μg and SZ137 0.256 μmol dissolved or dispersed in 5% α-cyclodextrin (hereinafter to be simply referred to as αCD)-added saline (SZ137 administration group), (4) OVA (5 μg) and SZ138 (0.256 μmol) dissolved or dispersed in 5% αCD-added saline (SZ138 administration group), (5) OVA (5 μg) and SZ142 (0.256 μmol) dissolved or dispersed in 5% αCD-added saline (SZ142 administration group), (6) OVA (5 μg) and SZ144 (0.256 μmol) dissolved or dispersed in 5% αCD-added saline (SZ144 administration group), (7) OVA (5 μg) and SZ145 (0.256 μmol) dissolved or dispersed in 5% αCD-added saline (SZ145 administration group), (8) OVA (5 μg) and SZ146 (0.256 μmol) dissolved or dispersed in 5% αCD-added saline (SZ146 administration group), (9) OVA (5 μg) and SZ147 (0.256 μmol) dissolved or dispersed in 5% αCD-added saline (SZ147 administration group), (10) OVA (5 μg) and SZ148 (0.256 μmol) dissolved or dispersed in 5% αCD-added saline (SZ148 administration group), each per mouse. Two week later, the secondary immunization was carried out by dorsal-subcutaneous administration of solutions or dispersions similar to those of the above-mentioned (1)-(10) again. Two weeks from the secondary immunization, the whole blood was extracted under anesthesia, and the obtained serum sample was measured for anti-OVA-specific IgG1 subclass antibody, anti-OVA-specific IgG2a subclass antibody, and anti-OVA-specific IgE antibody.
(§2) The measurement method of the anti-OVA-specific IgG1 subclass antibody and anti-OVA-specific IgG2a subclass antibody in Experimental Example 1 and the following Experimental Examples 2-10 is as follows.
(§3) To a 96 well plate was added 5 μg/ml OVA at 100 µl/well, and the mixture was incubated at 4° C. overnight. After incubation, the mixture was washed three times with 200 μl of PBS-T (PBS (phosphate buffered saline)+0.05% (v/v) Tween 20) per well, and blocked with 100 μl of 5% FCS (fetal calf serum)/PBS solution per well at room temperature for 1-2 hr. Thereafter, the mixture was washed three times with PBS-T (200 μl/well), a diluted serum sample (100 l/well) or the same amount of 5% FCS/PBS solution as a control was added, and the mixture was incubated at 37° C. for 1 hr. To calculate concentration of the antibody, the standard of an anti-OVA-specific IgG1 subclass antibody diluted with 2% FCS/PBS solution was added at 100 ng/ml, 50 ng/ml, 25 ng/ml, 12.5 ng/ml, 6.25 ng/ml, 3.125 ng/ml, 1.56 ng/ml, 0.781 ng/ml, 0.391 ng/ml, 0.195 ng/ml, 0.098 ng/ml, 0 ng/ml, per 1 well. When an anti-OVA-specific IgG2a subclass antibody was measured, the standard of an anti-OVA-specific IgG2a subclass antibody was added at 50 ng/ml, 25 ng/ml, 12.5 ng/ml, 6.25 ng/ml, 3.125 ng/ml, 1.56 ng/ml, 0.781 ng/ml, 0.391 ng/ml, 0.195 ng/ml, 0.098 ng/ml, 0.049 ng/ml, 0 ng/ml, per 1 well. Thereafter, similar to the samples, the mixture was washed five times with PBS-T (200 μl/well), a diluted biotinylated anti-mouse IgG1 antibody and IgG2a antibody were added (100 μl/well), and the mixture was incubated at 37° C. for 45 min. Thereafter, the mixture was washed five times with PBS-T (200 μl/well), a diluted anti-biotin-HRP antibody was added (100 μl/well), and the mixture was incubated at 37° C. for another 30 min. Thereafter, the mixture was washed five times with PBS-T (200 μl/well), TMB substrate solution was added (100 μl/well), and the mixture was incubated at room temperature for 10-15 min. Thereafter, a reaction quenching liquid (2N sulfuric acid solution) was added (50 l/well) to discontinue a color developing reaction, and the absorbance (OD Value=450 nm) was measured by a microplate reader. […]

[2] = system: anti-OVA-specific IgG2a subclass antibody; experiment: Adjuvant activity test: anti-OVA-specific IgG2a subclass antibody in serum of OVA-immunized mice (ELISA); format: in vivo, BALB/c mice; settings: after secondary immunization, serum 2 weeks later; OVA 5 μg + compound 0.256 μmol in 5% αCD-added saline (Addavax mixed with saline at 1:1), dorsal-subcutaneous; compared to OVA single administration group
Description: as §1, §2, §3

Row | SMILES | anti-OVA-specific IgG1 subclass antibody production [1] | anti-OVA-specific IgG2a subclass antibody production [2]
1 | CCCCCCCCCCCCCCCC(=O)N[C@@H](CCCNC(=N)N)C(=O)NCCCCCCCCCCCC.Cl [SZ111, N-[(1S)-1-(dodecylcarbamoyl)-4-guanidino-butyl]hexadecanamide hydrochloride] | significantly increased | significantly increased
2 | CCCCCCCCCCCCCCCCCCCCCC(=O)N[C@@H](CCCNC(=N)N)C(=O)NCCCCCCCCCCCC.Cl [SZ138, N-[(1S)-1-(dodecylcarbamoyl)-4-guanidino-butyl]docosanamide hydrochloride] | showed a tendency to increase | showed a tendency to increase
3 | CCCCCCCCCCCCCCCCCCCCCC(=O)N[C@@H](CC(C)C)C(=O)NCCCCCCCCCCC [SZ142, N-[(1S)-3-methyl-1-(undecylcarbamoyl)butyl]docosanamide] | showed a tendency to increase | showed a tendency to increase
4 | CCCCCCCCCCCCCCCC(=O)N[C@@H](CC(C)C)C(=O)NCCCCCCCCCCCC [SZ144, N-[(1S)-1-(dodecylcarbamoyl)-3-methyl-butyl]hexadecanamide] | showed a tendency to increase | showed a tendency to increase
5 | CCCCCCCCCCCCCCCCCCCCCC(=O)N[C@@H](C)C(=O)NCCCCCCCCCCCC [SZ145, N-[(1S)-2-(dodecylamino)-1-methyl-2-oxo-ethyl]docosanamide] | showed a tendency to increase | showed a tendency to increase
6 | CCCCCCCCCCCCCCCCCCCCCC(=O)NC(C)(C)C(=O)NCCCCCCCCCCCC [SZ146, N-[2-(dodecylamino)-1,1-dimethyl-2-oxo-ethyl]docosanamide] | showed a tendency to increase | showed a tendency to increase
7 | CCCCCCCCCCCCCCCCCCCCCC(=O)NCCC(=O)NCCCCCCCCCCCC [SZ147, N-[3-(dodecylamino)-3-oxo-propyl]docosanamide] | showed a tendency to increase | showed a tendency to increase
8 | CCCCCCCCCCCCCCCCCCCCCC(=O)NCC(C)(C)C(=O)NCCCCCCCCCCCC [SZ148, N-[3-(dodecylamino)-2,2-dimethyl-3-oxo-propyl]docosanamide] | showed a tendency to increase | showed a tendency to increase
9 | CCCCCCCCCCCCCCCCOC(=O)N[C@@H](CCCNC(=N)N)C(=O)NCCCCCCCCCCCC.Cl [SZ150, Hexadecyl N-[(1S)-1-(dodecylcarbamoyl)-4-guanidino-butyl]carbamate hydrochloride] | significantly increased | significantly increased
10 | CCCCCCCCCCCCCCCC(=O)N[C@@H](CCCCN)C(=O)NCCCCCCCCCCCC.Cl [SZ153, N-[(1S)-5-amino-1-(dodecylcarbamoyl)pentyl]hexadecanamide hydrochloride] | significantly increased | significantly increased
11 | CCCCCCCCCCCCCCCCCCCCCC(=O)N[C@@H](CCCC)C(=O)NCCCCCCCCCCCC [SZ155, N-[(1S)-1-(dodecylcarbamoyl)pentyl]docosanamide] | showed a tendency to increase | showed a tendency to increase
12 | CCCCCCCCCCCCCCCCCCCCCC(=O)N1CCC(C(=O)NCCCCCCCCCCCC)CC1 [SZ156, 1-docosanoyl-N-dodecyl-piperidine-4-carboxamide] | showed a tendency to increase | showed a tendency to increase
13 | CCCCCCCCCCCCCCCCCCCCCC(=O)N[C@@H](CCCNC(=N)N)C(=O)N(CCCCCCC)CCCCCCC.Cl [SZ159, N-[(1S)-1-(diheptylcarbamoyl)-4-guanidino-butyl]docosanamide hydrochloride] | showed a tendency to increase | showed a tendency to increase
14 | CCCCCCCCCCCCCCCCCCCCCC(=O)N[C@@H](CCCCN)C(=O)NCCCCCCCCCCCC.Cl [SZ160, N-[(1S)-5-amino-1-(dodecylcarbamoyl)pentyl]docosanamide hydrochloride] | showed a tendency to increase | showed a tendency to increase
15 | CCCCCCCC/C=C/CCCCCCCC(=O)N[C@@H](CCCNC(=N)N)C(=O)NCCCCCCCCCCCC.Cl [SZ161, (E)-N-[(1S)-1-(dodecylcarbamoyl)-4-guanidino-butyl]octadeca-9-enamide hydrochloride] | significantly increased | significantly increased
16 | CCCCCCCCCCCCCCCCCCCCCC(=O)N[C@@H](CCCNC(=N)N)C(=O)NCCCCCCC.Cl [SZ163, N-[(1S)-4-guanidino-1-(heptylcarbamoyl)butyl]docosanamide hydrochloride] | tended to increase | tended to increase
17 | CCCCCCCCCCCCCCCCCCCCCC(=O)N[C@@H](CCCN)C(=O)NCCCCCCCCCCCC.Cl [SZ165, N-[(1S)-4-amino-1-(dodecylcarbamoyl)butyl]docosanamide hydrochloride] | tended to increase | tended to increase
18 | CCCCCCCCCCCCCCCCCCCCCC(=O)N[C@@H](CCCCNC(=N)N)C(=O)NCCCCCCCCCCCC.Cl [SZ166, N-[(1S)-1-(dodecylcarbamoyl)-5-guanidino-pentyl]docosanamide hydrochloride] | tended to increase | tended to increase
19 | CCCCCCCCCCCCCCCCCC(=O)N[C@@H](CCCCNC(=N)N)C(=O)NCCCCCC.Cl [SZ206, N-[(1S)-1-(hexylcarbamoyl)-5-guanidino-pentyl]octadecanamide hydrochloride] | – | significant enhancement
